Several values for one entry are separate records, joined by “and”; a condition that tells them apart may be missing. Equal values may be shown once.
Experiments:
Parkin ligase = target: T1, Parkin ligase (Homo sapiens, UniProt O60260); assay: Activity-Based Probe Assay using Ubiquitin vinyl sulfone probe (TR-FRET); type: biochemical; details: heat activated Parkin, HA-Ub-VS probe, activation EC50; read-out: Probe Assay EC50 (μM) [Example 2]
T1 sequence (O60260 1-465): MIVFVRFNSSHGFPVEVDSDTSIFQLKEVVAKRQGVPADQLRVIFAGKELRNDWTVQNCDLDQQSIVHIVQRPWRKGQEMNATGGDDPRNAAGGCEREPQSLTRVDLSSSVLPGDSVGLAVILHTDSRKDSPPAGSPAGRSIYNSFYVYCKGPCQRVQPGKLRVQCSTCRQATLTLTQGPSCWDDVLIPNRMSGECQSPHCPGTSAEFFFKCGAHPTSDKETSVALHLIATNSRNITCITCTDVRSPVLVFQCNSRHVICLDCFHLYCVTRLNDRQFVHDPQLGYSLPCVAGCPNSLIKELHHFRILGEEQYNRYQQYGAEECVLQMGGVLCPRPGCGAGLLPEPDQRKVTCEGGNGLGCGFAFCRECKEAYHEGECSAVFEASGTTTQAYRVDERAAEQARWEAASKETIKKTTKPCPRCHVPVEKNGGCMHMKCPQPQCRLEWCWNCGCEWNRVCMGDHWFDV
Description: An Ubiquitin vinyl sulfone probe can be used that irreversibly binds to the active site cysteine of Parkin ligase. Covalent attachment of the probe to the Parkin can be monitored by TR-FRET. Candidate activator compounds can be identified by increasing the activity of Parkin ligase due to an increase in TR-FRET signal. Screening for activating compounds can be distinguished from the controls as follows: 100% activation signal=Heat activated Parkin+100 nM control activator in DMSO. 0% activation signal=Heat activated Parkin+DMSO only. Parkin activators can be identified by an increase of the 0% activation signal TR-FRET signal. Assay Conditions: Materials: • Assay Plate: White 384 well plate (Corning 3572) • Enzyme: Parkin-His tagged 203 μM (10.5 mg/ml) • Probe: Ubiquitin vinyl-sulfone (HA-Ub-VS Boston Biochem U-212) • DMSO: DMSO (Sigma cat #D4540-100ML) • Reaction Buffer: 50 mM HEPES (pH 8.5), 150 mM NaCl, 0.01% Tween 20, 0.1% BSA • Detection Buffer: 50 mM HEPES (pH 8.5), 150 mM NaCl, 0.01% Tween 20, 0.1% BSA, 800 mM KF • Detection Reagent A: 2.6 nM Anti-6HIS-Eu cryptate and 40 nM Anti-HA-XL665 in detection buffer • Eu cryptate: Anti-6HIS-Eu cryptate (CisBio 61HISKLA) • XL665: Anti-HA-XL665 (CisBio 610HAXLA) Enzyme Reaction (15 Min Pre Incubation Parkin with Activator Only) • Parkin: 40 nM • HA-Ub-VS Probe: 70 nM • Activator/DMSO: 2× Activator/2% DMSO Reaction time: 60 minutes Temperature: 22° C. Total volume: 10 μl reaction Detection Reaction Take […] of Enzyme Reaction above and add 10 μl detection Reagent A under the following conditions: • Reaction time: 60 minutes • Temperature: 22° C. • Total volume: 20 μl
Assay procedure (Using HP D-300 compound dispenser and Bravo for the operation):
1) Heat activate Parkin in reaction buffer (500 μl/1.5 ml tube: Eppendorf Thermomixer 5 minutes, 400 rpm at 58° C. and put on ice until needed).
2) Load assay plate wells with 4.8 μl 84.5 nM Parkin in reaction buffer by use of Bravo.
3) Deliver 0.2 μl 200× activator candidates in DMSO by use of HP D-300 compound dispenser. Highest 200× concentration=[…] and then twofold dilutions.
4) Spin 1000 rpm, 2 minutes, at room temp.
5) Incubate plate for 15 minutes at room temp.
6) Add 5 μl 140 nM HA-Ub-VS Probe in reaction buffer by use of Bravo.
7) Spin 1000 rpm, 2 minutes, at room temp.
8) Incubate plate for 60 minutes at room temp.
9) Add 10 μl 2.6 nM Anti-6HIS-Eu cryptate and 40 nM […] in detection buffer.
10) Spin 1000 rpm, 2 minutes, at room temp.
11) Incubate plate for 60 minutes at room temp.
12) Read plates on Perkin Elmer Envision instrument with the following parameters:
LANCE dual laser protocol loaded into the Envision® software
Top Mirror: LANCE/DELFIA Duel/Bias (Bar code 446)
Emission Filter: APC 665 EM (Bar code 205)
2nd Emission Filter: Europium 615 EM (Bar code 203)
Read 655 nm (channel 1) and 615 nm (channel 2) wavelengths on Envision®
Data Analysis: The Data can be read in CSV files. There are two tables in those CSV files, which are the values of 655 nm (channel 1) and 615 nm (channel 2) wavelengths respectively. The data is converted to an HTRF Ratio=(Channel 1/Channel 2)*10,000
The average of all the 0 μM controls (DMSO only)=BKGD (Background—0% activation). Subtract BKGD from each HTRF Ratio value=HTRF−BKGD. The average of all the […] 100 nM control activator in DMSO controls=Max (100% activation). The following equation is then used to calculate % Activation for each well/candidate as follows: % Activation=(HTRF−BKGD/Max)*100.
Graphpad Prism was used with Transform X values: X=Log(X) and nonlinear regression (dose-response-stimulation): Log(agonist) vs Response−variable slope (four parameters) with constrains set to Bottom=0 and Top=100.
The Activity-Based Probe Assay was performed with various compounds in Tables 1, 2, 3A and 3B.

TOV-21G (ovarian) = assay: Cancer cell proliferation assay (acid phosphatase); type: cell-based; details: Homo sapiens, TOV21G, 72 h, Table 6A; 72 hrs; read-out: TOV-21G IC50
Description: Measurement of the inhibitive effect of compounds on cancer cell proliferation was performed. Various cell lines were tested, including HCT-116 (colon); A549 (lung); TOV-21G (ovarian); Calu-6 (lung); and LS-174T (colon); and cell lines H1703 (Lung) and SKOV3 (ovarian); JEKO-1 (lymophoma); TOV-112D (ovarian) are tested. The assays were performed under the following conditions: Cells are harvested at a concentration of 4×10^4 cells/ml in media. Volumes of 100 μl/well of these cell suspensions were added to a 96 well plate using a multichannel pipette. Plates were gently agitated to ensure an even dispersion of cells over a given plate. Cells were then incubated at 37° C., 5% CO2 overnight. Following this, 100 μl of compound at varying concentrations was added to wells in triplicate. Control wells are those with 100 μl media containing 0.33% DMSO added to cell suspension (this is the equivalent volume of DMSO found in the highest concentration of drug). Plates were then gently agitated, as above, and incubated at 37° C., 5% CO2 for 72 hrs (control wells have reached 80-90% confluency). Assessment of cell proliferation in the presence of the compound was determined by the acid phosphatase assay.
Following the incubation period of 72 hrs, media was removed from the plates. Each well on the plate was washed twice with 100 μl PBS. This was then removed and 100 μl of freshly prepared phosphatase substrate (10 mM p-nitrophenol phosphate in 0.1M sodium acetate, 0.1% triton X-100, pH 5.5) was added to each well. The plates were then incubated in the dark at 37° C. for 2 hours. Colour development was monitored during this time. The enzymatic reaction was stopped by the addition of 50 μl of 1N NaOH. The plate was read in a dual beam plate reader at 405 nm with a reference wavelength of 620 nm. The absorbance reading of the latter is subtracted from the former, and the effect of the drug on cell proliferation was then measured as a percentage against the control cells (DMSO), which is taken as 0% inhibition.

Cc1ccccc1C(=O)Nc1nc(NC(=O)[C@@H]2C[C@H](F)CN2)nn1-c1ccccc1 [Compound 3]
EC50 (Parkin ligase): 16 µM and > 100 µM | IC50 (TOV-21G (ovarian)): 2.4 µM

Cc1ccccc1C(=O)Nc1nc(NCCc2ccccc2)nn1-c1ccc(C(F)(F)F)cc1 [Compound 103]
EC50 (Parkin ligase): 1 µM

Cc1ccccc1C(=O)Nc1nc(NCc2ccccc2)nn1-c1ccc(OC(F)(F)F)cc1 [Compound 105]
EC50 (Parkin ligase): 1 µM

Cc1ccccc1C(=O)Nc1nc(NCCc2ccccc2)nn1-c1ccc(OC(F)(F)F)cc1 [Compound 106]
EC50 (Parkin ligase): > 100 µM

COc1ccc(CNc2nc(NC(=O)c3ccccc3C)n(-c3ccc(OC(F)(F)F)cc3)n2)cc1 [Compound 107]
EC50 (Parkin ligase): 1 µM

Cc1ccccc1C(=O)Nc1nc(NCCc2ccccc2)nn1-c1ccc(Cl)cc1 [Compound 109]
EC50 (Parkin ligase): 1 µM

COc1cccc(CNc2nc(NC(=O)c3ccccc3C)n(-c3ccc(OC(F)(F)F)cc3)n2)c1 [Compound 110]
EC50 (Parkin ligase): 2 µM

COc1ccccc1CNc1nc(NC(=O)c2ccccc2C)n(-c2ccc(OC(F)(F)F)cc2)n1 [Compound 111]
EC50 (Parkin ligase): 2 µM

Cc1ccccc1C(=O)Nc1nc(NCc2cccc(Cl)c2)nn1-c1ccc(OC(F)(F)F)cc1 [Compound 112]
EC50 (Parkin ligase): 1 µM

Cc1ccccc1C(=O)Nc1nc(NCc2ccc(Cl)cc2)nn1-c1ccc(OC(F)(F)F)cc1 [Compound 113]
EC50 (Parkin ligase): 0.8 µM

Cc1ccccc1C(=O)Nc1nc(N[C@H](C)c2ccccc2)nn1-c1ccccc1 [Compound 114]
EC50 (Parkin ligase): 2 µM

Cc1ccccc1C(=O)Nc1nc(N[C@@H](C)c2ccccc2)nn1-c1ccccc1 [Compound 115]
EC50 (Parkin ligase): 3 µM

Cc1ccccc1C(=O)Nc1nc(N[C@@H](C)c2ccccc2)nn1-c1ccc(OC(F)(F)F)cc1 [Compound 117]
EC50 (Parkin ligase): 2 µM

Cc1ccccc1C(=O)Nc1nc(N[C@H](C)c2ccccc2)nn1-c1ccc(OC(F)(F)F)cc1 [Compound 118]
EC50 (Parkin ligase): 1 µM

Cc1ccccc1C(=O)Nc1nc(NC(=O)c2c(F)cccc2F)nn1-c1ccccc1 [Compound 119]
EC50 (Parkin ligase): 2 µM

Cc1ccccc1C(=O)Nc1nc(N[C@@H](C)c2ccccc2)nn1-c1ccc(C(F)(F)F)cc1 [Compound 120]
EC50 (Parkin ligase): 1 µM

Cc1ccccc1C(=O)Nc1nc(-c2cn(C)cn2)nn1-c1ccccc1 [Compound 125]
EC50 (Parkin ligase): > 100 µM

Cc1ccccc1C(=O)Nc1nc(-c2cccc[n+]2[O-])nn1-c1ccccc1 [Compound 130]
EC50 (Parkin ligase): 5 µM

Cc1ccccc1C(=O)Nc1nc(-c2cscn2)nn1-c1ccccc1 [Compound 135]
EC50 (Parkin ligase): > 100 µM

Cc1ccccc1C(=O)Nc1nc(-c2ncccc2F)nn1-c1ccccc1 [Compound 136]
EC50 (Parkin ligase): > 100 µM

c1ccc(CNc2nc(NCc3ccccc3)n(-c3ccccc3)n2)cc1 [Compound 138]
EC50 (Parkin ligase): > 100 µM

Cc1ccccc1C(=O)Nc1nc(-c2ncccc2C)nn1-c1ccc(OC(F)(F)F)cc1 [Compound 139]
EC50 (Parkin ligase): 0.9 µM

Cc1ccccc1C(=O)Nc1nc(-c2cocn2)nn1-c1ccccc1 [Compound 140]
EC50 (Parkin ligase): > 100 µM

Cc1ccccc1C(=O)Nc1nc(-c2ncccc2C)nn1-c1ccc(C(F)(F)F)cc1 [Compound 141]
EC50 (Parkin ligase): 1 µM

Cc1ccccc1C(=O)Nc1nc(-c2ncccc2C)nn1-c1ccc(Cl)cc1 [Compound 142]
EC50 (Parkin ligase): 0.3 µM

c1ccc(CCNc2nc(NCCc3ccccc3)n(-c3ccccc3)n2)cc1 [Compound 143]
EC50 (Parkin ligase): > 100 µM

c1ccc(-n2nc(NCc3ccccn3)nc2NCc2ccccn2)cc1 [Compound 144]
EC50 (Parkin ligase): > 100 µM

c1ccc(-n2nc(NCCc3ccccn3)nc2NCCc2ccccn2)cc1 [Compound 145]
EC50 (Parkin ligase): > 100 µM

Cn1cnc(-c2nc(N)n(-c3ccccc3)n2)c1 [Compound 147]
EC50 (Parkin ligase): > 100 µM

Cc1ccccc1C(=O)N(C(=O)c1ccccc1)c1nc(N)n(-c2ccccc2)n1 [Compound 148]
EC50 (Parkin ligase): > 100 µM
